The values below come from BindingDB's records for doi:10.1016/j.bmcl.2016.12.057 (University of Auckland, 2017).

This test is described as follows: Inhibition of recombinant perforin (unknown origin) assessed as decrease in lysis of 51Cr-labelled human Jurkat cells by measuring 51Cr release preincubated for 30 mins followed by cell line addition measured after 4 hrs in presence of 0.1% BSA by gamma counting method.

For orientation: pIC50 means −log10 of the IC50, conventionally taken in molar units.

pIC50: −log10 of the molar value.

Take `CN1Cc2cc(-c3nc(-c4cncc(NS(=O)(=O)c5ccc(F)cc5F)c4)cs3)ccc2C1=O`: the pIC50 was less than 4.70.
The same measure for `O=C1NCCc2ccc(-c3ccc(-c4cncc(NS(=O)(=O)c5ccc(F)cc5F)c4)s3)cc21`: less than 4.70; for `CC1c2cc(-c3ccc(-c4cncc(NS(=O)(=O)c5ccc(F)cc5F)c4)s3)ccc2C(=O)N1C` (stereo not given): less than 4.70.
In the case of `CN1CCc2cc(-c3ccc(-c4cncc(NS(=O)(=O)c5ccc(F)cc5F)c4)s3)ccc2C1=O`, the pIC50 is less than 4.70.
Take `O=C1NCCc2cc(-c3ccc(-c4cncc(NS(=O)(=O)c5ccc(F)cc5F)c4)s3)ccc21`: the pIC50 was less than 4.70.
